BindingDB's records for doi:10.1021/acs.jmedchem.1c00019 (National Center For Advancing Translational Sciences, 2021)
Where “and” joins values, the source holds several entries; their conditions need not be identical. Equal entries are not always repeated.

What was measured:
[1] = target: T1, Isocitrate dehydrogenase [NADP] cytoplasmic (Homo sapiens, UniProt O75874); test: Inhibition of IDH1 R132C mutant (unknown origin) assessed as reduction in NADPH consumption using alpha-KG as substrate incubated for 5 mins by diaphorase/resazurin-coupled system
Target sequence in this assay (O75874 2-414 R132C limits assumed): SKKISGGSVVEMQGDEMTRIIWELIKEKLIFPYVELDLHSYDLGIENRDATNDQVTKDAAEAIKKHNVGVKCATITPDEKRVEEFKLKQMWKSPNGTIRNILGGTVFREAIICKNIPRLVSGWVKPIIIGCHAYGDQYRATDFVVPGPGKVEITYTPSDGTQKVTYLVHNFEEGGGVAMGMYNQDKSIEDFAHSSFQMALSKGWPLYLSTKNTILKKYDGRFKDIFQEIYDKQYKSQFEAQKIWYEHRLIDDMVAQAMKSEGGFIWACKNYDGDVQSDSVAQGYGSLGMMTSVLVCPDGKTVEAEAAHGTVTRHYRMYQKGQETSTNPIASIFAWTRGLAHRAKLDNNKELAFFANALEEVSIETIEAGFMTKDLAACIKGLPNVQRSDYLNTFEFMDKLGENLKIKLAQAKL

[2] = target: T1, Isocitrate dehydrogenase [NADP] cytoplasmic; test: Inhibition of IDH1 R132H mutant (unknown origin) assessed as reduction in NADPH consumption using alpha-KG as substrate incubated for 5 mins by diaphorase/resazurin-coupled system
Target sequence in this assay (O75874 2-414 R132H limits assumed): as the sequence (O75874 2-414 R132C limits assumed) above, with C131H counted along it

IC50 [1] | IC50 [2] | Compound
130 nM |  | CCc1ccc(OC)cc1-n1c(C=C(C)C)c(C(=O)N2CCNCC2)cc(-c2nc(-c3ccc(Cl)cc3)cs2)c1=O
100 nM and 72 nM | 114 nM and 81 nM | CCc1ccc(Cl)cc1-n1c(C=C(C)C)c(C(=O)N2CCNCC2)cc(-c2nc(-c3ccc(Cl)cc3)cs2)c1=O
